Source: PMC7504751, “Potential of 2-Chloro-N-(4-fluoro-3-nitrophenyl)acetamide Against Klebsiella pneumoniae and In Vitro Toxicity Analysis” (Molecules, 2020)
In brackets after ≈: the same amount, converted by molar mass. Like-named read-outs stand apart in the source and are kept apart here.

Columns and labels:
[1] = tested on: K. pneumoniae strains; assay: Minimum bactericidal concentration (MBC); format: cell-based, Klebsiella pneumoniae; details: for Effect: from MBC/MIC ratio
Description: The clinical isolates strains of K. pneumoniae were used in this study belong to the MICOTECA of the Antibacterial and Antifungal Activity Research Laboratory of the Federal University of Paraíba, Brazil, which are: KP-25, KP-26, KP-56, KP-83, KP-87, KP-138, KP-143, KP-166, KP-173, KP-176, KP-260, and KP-326. The American Type Culture Collection strain ATCC-700603 was used as controls. For use in the assays, bacterial suspensions were prepared in 0.9% saline solution, from fresh cultures, and adjusted to the McFarland standard 0.5 scale.
After MIC reading, the A2 minimum bactericidal concentration was determined by removing aliquots from the microdilution plates in the wells corresponding to concentrations equivalent to MIC, 2× MIC, 4× MIC, and 8× MIC and inoculating in new plates containing only culture broth. All controls were performed in parallel. MBC is defined as the lowest concentration capable of causing complete inhibition of bacterial growth after 24 h at 35 ± 2 °C [21, 44].

[2] = tested on: K. pneumoniae; assay: Effect on bacterial cell integrity (release of 260 nm absorbing material); format: cell-based, Klebsiella pneumoniae; details: compared to negative control, p ≤ 0.0001
Description: The cell integrity can be assessed by releasing intracellular material, mainly nucleotides, which absorb 260 nm wavelengths. The K pneumoniae strains ATCC-700603, KP-26, KP-56, and KP-143 were used to perform this test. First, the bacterial inoculum was incubated in BHI broth (1 × 10^7 CFU/mL) overnight at 35 ± 2 °C. Then, centrifugation was performed at 400× g for 10 min. The cell pellet was washed three times with sterile PBS (phosphate-buffered saline) and resuspended in PBS containing the A2 substance at MIC and 2× MIC concentrations. As a negative control, suspensions that underwent the same procedures, but without treatment with the substance, were used. The tubes corresponding to the MIC were incubated for 10 h at 35 ± 2 °C, and the tubes corresponding to the 2× MIC, for 6 h. After incubation, the suspensions were centrifuged at 400× g for 10 min and the supernatants were read on a spectrophotometer at 260 nm. All analyses were performed in triplicate.

[3] = Hemolytic activity; format: cell-based; details: human, 0.5% red blood cell suspension
Description: The tests were performed according to the recommendations established by the Code of Ethics of the World Medical Association, after approval by the ethics committee of the Centro Universitário de Patos (number: 3621284). Blood samples (types A, B, and O) and smears of oral mucosa were donated by young, healthy adults.
The red blood cell (RBC) samples from blood donors were diluted in 0.9% NaCl at a 1:30 ratio and centrifuged at 2500 rpm for five minutes to obtain the 0.5% suspension free of white blood cells and platelets. Then, the A2 substance was added to the red blood cell suspensions, at 50, 100, 500, and 1000 µg/mL concentrations. As controls, a suspension of red cells without treatment (0% hemolysis) were used as a negative control and a suspension of red cells treated with 1% Triton X-100 (100% hemolysis) as a positive control. The assay was incubated for one hour at 22 ± 2 °C. After that time, the samples were centrifuged at 700× g for 5 min and hemolysis was quantified by spectrophotometry at a wavelength of 540 nm.

[4] = tested on: oral mucosa cells; assay: Genotoxic effects on oral mucosa cells; format: cell-based, human; details: for Binucleation / Karyolysis / Karyorrhexis / Micronucleus / Normal: 30 min ex vivo
Description: The tests were performed according to the recommendations established by the Code of Ethics of the World Medical Association, after approval by the ethics committee of the Centro Universitário de Patos (number: 3621284). Blood samples (types A, B, and O) and smears of oral mucosa were donated by young, healthy adults. First, the oral mucosa cells were collected from the donors, which was done with a cyto-brush (smear collector) in the cheek area, and the material obtained was placed in 5 mL of 0.9% NaCl. As controls, cells treated with hydrogen peroxide −0.0005% (positive control) and untreated cells (negative control) were used. The cells were washed twice with saline and centrifuged for 10 min at 400× g and kept in saline. After the third wash, the cells were exposed (ex vivo) to A2 substance at 50, 100, 500, and 1000 µg/mL concentrations for 30 min. The material was centrifuged and the supernatant was discarded before smear preparation. The cells were homogenized in a vortex and placed on the slides at room temperature for drying for 15 min. Then, they were fixed with methanol: acetic acid (3:1) for 15 min and stained with 2% Giemsa.

melting point: 91 to 93 °C
Structure (SMILES): O=C(CCl)Nc1ccc(F)c([N+](=O)[O-])c1 [A2, 2-chloro-N-(4-fluoro-3-nitrophenyl)acetamide]
MBC ([1]; Klebsiella pneumoniae, ATCC700603, strain ATCC-700603, read-out: MBC): 512 µg/mL (≈ 2200 µM)
MBC ([1]; Klebsiella pneumoniae, all K. pneumoniae strains used in this study, read-out: MBC): 512 µg/mL (≈ 2200 µM)
mode of action (bactericidal / bacteriostatic) ([1]; all K. pneumoniae strains, from the MIC): bactericidal
Effect ([1]; strain ATCC-700603): Bactericide (bactericidal activity when the ratio between MBC and MIC is ≤4)
MBC ([1]; strain KP-25): 512 µg/mL (≈ 2200 µM)
Effect ([1]; strain KP-25): Bactericide (bactericidal activity when the ratio between MBC and MIC is ≤4)
MBC ([1]; strain KP-26): 512 µg/mL (≈ 2200 µM)
Effect ([1]; strain KP-26): Bactericide (bactericidal activity when the ratio between MBC and MIC is ≤4)
MBC ([1]; strain KP-56): 512 µg/mL (≈ 2200 µM)
Effect ([1]; strain KP-56): Bactericide (bactericidal activity when the ratio between MBC and MIC is ≤4)
MBC ([1]; strain KP-83): 512 µg/mL (≈ 2200 µM)
Effect ([1]; strain KP-83): Bactericide (bactericidal activity when the ratio between MBC and MIC is ≤4)
MBC ([1]; strain KP-87): 512 µg/mL (≈ 2200 µM)
Effect ([1]; strain KP-87): Bactericide (bactericidal activity when the ratio between MBC and MIC is ≤4)
MBC ([1]; strain KP-138): 512 µg/mL (≈ 2200 µM)
Effect ([1]; strain KP-138): Bactericide (bactericidal activity when the ratio between MBC and MIC is ≤4)
MBC ([1]; strain KP-143): 512 µg/mL (≈ 2200 µM)
Effect ([1]; strain KP-143): Bactericide (bactericidal activity when the ratio between MBC and MIC is ≤4)
MBC ([1]; strain KP-166): 512 µg/mL (≈ 2200 µM)
Effect ([1]; strain KP-166): Bactericide (bactericidal activity when the ratio between MBC and MIC is ≤4)
MBC ([1]; strain KP-173): 512 µg/mL (≈ 2200 µM)
Effect ([1]; strain KP-173): Bactericide (bactericidal activity when the ratio between MBC and MIC is ≤4)
MBC ([1]; strain KP-176): 512 µg/mL (≈ 2200 µM)
Effect ([1]; strain KP-176): Bactericide (bactericidal activity when the ratio between MBC and MIC is ≤4)
MBC ([1]; strain KP-260): 512 µg/mL (≈ 2200 µM)
Effect ([1]; strain KP-260): Bactericide (bactericidal activity when the ratio between MBC and MIC is ≤4)
MBC ([1]; strain KP-326): 512 µg/mL (≈ 2200 µM)
Effect ([1]; strain KP-326): Bactericide (bactericidal activity when the ratio between MBC and MIC is ≤4)
release of 260 nm absorbing material (cell lysis) ([2]; 2× MIC, six hours): Cell lysis is also evident
release of 260 nm absorbing material (cytoplasmic contents) ([2]; MIC, 10 h of treatment): significant release of cytoplasmic contents
hemolysis at 1 h ([3]; blood types A, B and O, 50–500 µg/mL, all tested blood types, 1 h at 22 ± 2 °C): 4 to 20%
hemolysis at 1 h, 1000 µg/mL ([3]; blood type O, read-out: hemolysis (average erythrocyte lysis)): 8%
hemolysis at 1 h, 1000 µg/mL ([3]; blood types A and B, read-out: hemolysis): 37 to 47%
Binucleation ([4]; 50 µg/mL): 0.00%
Karyolysis ([4]; 50 µg/mL): 1.00%
Karyorrhexis ([4]; 50 µg/mL): 1.00%
Micronucleus ([4]; 50 µg/mL): 0.50%
Normal ([4]; 50 µg/mL): 97.50%
Binucleation ([4]; 100 µg/mL): 0.00%
Karyolysis ([4]; 100 µg/mL): 3.00%
Karyorrhexis ([4]; 100 µg/mL): 4.00%
Micronucleus ([4]; 100 µg/mL): 0.50%
Normal ([4]; 100 µg/mL): 92.50%
Binucleation ([4]; 500 µg/mL): 0.50%
Karyolysis ([4]; 500 µg/mL): 4.00%
Karyorrhexis ([4]; 500 µg/mL): 5.00%
Micronucleus ([4]; 500 µg/mL): 0.70%
Normal ([4]; 500 µg/mL): 86.80%
Binucleation ([4]; 1000 µg/mL): 0.50%
Karyolysis ([4]; 1000 µg/mL): 5.00%
Karyorrhexis ([4]; 1000 µg/mL): 7.00%
Micronucleus ([4]; 1000 µg/mL): 2.00%
Normal ([4]; 1000 µg/mL): 83.50%
normal cells ([4]; all tested concentrations (50–1000 µg/mL)): greater than 80%
